{
  "source": "patent US11643478B2",
  "about": "“Low-molecular-weight holothurian glycosaminoglycan and use thereof” (Suzhou Yi-hua Biomedical Technology co., Ltd, priority 2019, dated 2023)",
  "key": {"[1]": {"test_system": "rat's learning and memory abilities of scopolamine model", "experiment": "Morris water maze test, rat dysmnesia model induced by scopolamine", "assay_type": "in vivo, SD rats", "settings": "intragastric for 2 weeks, LHG 30 mg/Kg, Donepezil 1 mg/Kg; scopolamine i.p.", "method": "Grouping and dose: blank control group, scopolamine model group (SCOP), positive control group:(Donepezil, 1 mg/Kg), LHG drug group (30 mg/Kg). Administration: intragastric administration. […] Morris training on Day 9 (2 times per day). Morris water maze test and platform jumping test on Day 14. Modeling method and test of learning and memory: on the day of the test, rats of scopolamine model group, positive control group and LHG drug group were injected with scopolamine hydrobromide through peritoneal cavity (firstly injection dose is 2 mg/Kg for 2 days, then injection dose is 2 mg/Kg on Day 3) at 30 minutes after intragastric administration, while rats of blank control group were injected with equal volume of normal saline through peritoneal cavity. Morris water maze test was conducted at 20 minutes after injection. The route, time and speed of the rats in the 90s were recorded automatically with computer by the camera tracking on the swimming performance of the rats, then the escaping-incubation time of seeking the platform and swimming distance were calculated."}, "[2]": {"test_system": "rat's learning and memory abilities of scopolamine model", "experiment": "Platform jumping test, rat dysmnesia model induced by scopolamine", "assay_type": "in vivo, SD rats", "settings": "intragastric for 2 weeks, LHG 30 mg/Kg, Donepezil 1 mg/Kg, scopolamine 5 mg/Kg i.p.", "method": "Grouping and dose: blank control group, scopolamine model group (SCOP), positive control group:(Donepezil, 1 mg/Kg), LHG drug group (30 mg/Kg). Administration: intragastric administration. […] Morris training on Day 9 (2 times per day). Morris water maze test and platform jumping test on Day 14. Platform jumping test: Learning and training on the first day, the repeated tests were conducted on the second day. Rats of scopolamine model group, positive control group and LHG drug group were injected with scopolamine hydrobromide through peritoneal cavity (5 mg/Kg) at 20 minutes before the test, while rats of blank control group were injected with equal volume of normal saline through peritoneal cavity. The incubation time of jumping off the platform for the first time (SDL) and the incubation time of avoiding electric shock (EL) were recorded."}, "[3]": {"test_system": "xylene inducing murine auricle swelling", "experiment": "Xylene inducing murine auricle swelling (anti-inflammation effect)", "assay_type": "in vivo", "settings": "mice, subcutaneous injection 0.01 mL/1 g for 5 days (LHG 100 mg/mL, dexamethasone 50 mg/mL), 1 h after xylene", "method": "Drug preparation: LHG was added in ionized water to obtain 100 mg/mL LHG solution. Positive contrast: dexamethasone was added in ionized water to obtain 50 mg/mL dexamethasone solution. Blank contrast: ionized water.\nAdministration: sub cutaneous injection.\nExperimental process: healthy mice are randomly divided into three groups (six in each group, half male and half female), name as LHG drug group, positive control group and blank control group. Three groups' mice were injected with 0.01 mL/1 g of LHG, dexamethasone and ionized water respectively. Drug was administered continuously for 5 days. 30 μL of xylenes was evenly smeared on both sides of the right ear of the mice to induce inflammation at 30 min after the last administration. The left ear was used as the reference. At 1 h after inducing inflammation, mice were executed by removing cervical vertebra. The ear pieces of the same part in the left and right ears were obtained with a hole punter, then the auricle swelling rate and inhibition rate of auricle swelling were calculated by weighing with an analytical balance."}},
  "data": [
    {"compound": "COc1cc2c(cc1OC)C(=O)C(CC1CCN(Cc3ccccc3)CC1)C2", "note": "(stereo not drawn) [Donepezil]", "values": [
      {"measurement": "Escaping-incubation time", "setting": "[1]", "value": "37.20 ± 12.72", "unit": "s"},
      {"measurement": "Swimming distance (cm)", "setting": "[1]", "value": "1652.25 ± 295.02", "unit": "cm"},
      {"measurement": "Incubation time of avoiding electric shock", "setting": "[2]; EL", "value": "115.28 ± 17.54", "unit": "s"},
      {"measurement": "Incubation time of jumping off the platform for the first time", "setting": "[2]; SDL", "value": "48.75 ± 9.84", "unit": "s"}
    ]},
    {"compound": "C[C@@H]1C[C@H]2[C@@H]3CCC4=CC(=O)C=C[C@]4(C)[C@@]3(F)[C@@H](O)C[C@]2(C)[C@@]1(O)C(=O)CO", "note": "[dexamethasone]", "values": [
      {"measurement": "Auricle swelling rate", "setting": "[3]", "value": "102.9% ± 11.3%"},
      {"measurement": "Inhibition rate of auricle swelling", "setting": "[3]", "value": 24.6, "unit": "%"}
    ]}
  ]
}
